Reference: patent US4619916A, “Tripeptide compounds containing pyroglutamic acid and tryptophan, process for their production and therapeutic applications” (Polifarma S.p.A., priority 1984, dated 1986)
Where a SMILES comes first, the peptide text is derived from it. [ ]: non-standard residue; d: D form. pGlu = O=C1CC[C@@H](C(=O)O)N1

Legend:
[1] = system: Male CD Charles River rats; test: Hypotensive effect in anesthetized rats (carotid pressure after intravenous injection); format: in vivo, rat; details: dose of 2 mg/kg, injected in the right femoral vein, in 0.9% NaCl, urethane-anesthetized rats
Experimental: (§1) After incannulation of the trachea, the right carotid was isolated and connected by a cannula to a pressure measurement device. The isolated left carotid was used to record the flow by means of an electromagnetic flussimeter. Other parameters recorded were: dp/dt, ECG (electrocardiogram), BPM (beats per minute). All values were recorded on an 8 channel Hewlett Packard polygraph.
(§2) The tripeptides were dissolved in 0.9% NaCl and injected in the right femoral vein.

[2] = system: Male CD Charles River rats; test: Potentiation of the hypotensive effect of adenosine; format: in vivo, rat; details: for Effect on the hypotensive effect of adenosine: tripeptide 0.1 mg/kg in the vein, 15 minutes before adenosine (0.15 mg/kg in the vein)
Experimental: as §1, with “Male CD Charles River rats weighing 220-250 g were used, anesthetized with ethyl urethane (1.75 g/kg intraperitoneally). After” for “After”
as §2
Any interference of synthesized peptides with the hemodynamic effects of adenosine would be shown using the method described. […] In this case the compound according to the invention was pGLU-GLU-TRP.

female Swiss albino mice = test: Analgesic activity, writhing test with 3% aqueous acetic acid; format: in vivo, mouse; details: for Analgesic activity (mean reduction of number of contorsions vs controls): 20 minute observation
Experimental: This activity was evaluated with the writhing test, using a 3% aqueous acetic acid solution as pain-causing agent, injected intraperitoneally (0.1 ml/10 g). The experiment was performed with 80 female Swiss albino mice weighing 18-24 g, fasting for three hours and divided into groups of 20 animals each: (1) controls, treated with 0.9% NaCl; (2) those treated with the test tripeptide (10 mg/kg intraperitoneally); (3) those treated with adenosine (2 mg/kg intraperitoneally); (4) those treated with the tripeptide (10 mg/kg intraperitoneally) and adenosine (2 mg/kg intraperitoneally). In groups 1 and 2 the substances were administered 40 minutes before the acetic acid; in group 3 the adenosine was administered 10 minutes before the acetic acid; in group 4 the adenosine was administered 30 minutes after the tripeptide and 10 minutes before the acetic acid. After the acetic acid innoculation, the animals were placed in groups of 5 in plastic cages, and observed for a 20 minute period. The number of contorsions the animals made during that period was recorded. Based on the mean reduction of the number of contorsions of the treated animals with respect to the controls, the analgesic action of the test substance was calculated.

Row | SMILES | Δ on maximum (lowering of the maximum pressure) [1] [mm Hg] | Δ on minimum (lowering of the minimum pressure) [1] [mm Hg] | also measured
1 | O=C(O)CC[C@H](NC(=O)[C@@H]1CCC(=O)N1)C(=O)N[C@@H](Cc1c[nH]c2ccccc12)C(=O)O [pGLU--GLU--TRP, pGLU-GLU-TRP] ([pGlu]-Glu-Trp-OH) | 20 | 10 | Effect on the hypotensive effect of adenosine [2]: potentiates and prolongs the hypotensive effect
2 | NC(=O)C[C@H](NC(=O)[C@@H]1CCC(=O)N1)C(=O)N[C@@H](Cc1c[nH]c2ccccc12)C(=O)O [pGLU--ASN--TRP, pGLU-ASN-TRP] ([pGlu]-Asn-Trp-OH) | 35 | 20 | Analgesic activity of tripeptide together with adenosine (female Swiss albino mice; tripeptide 10 mg/kg i.p. plus adenosine 2 mg/kg i.p. given 30 minutes after the tripeptide and 10 minutes before acetic acid): additive effect; Analgesic activity (mean reduction of number of contorsions vs controls) (female Swiss albino mice; tripeptide 10 mg/kg intraperitoneally, 40 minutes before acetic acid): 25%; Effect on the hypotensive effect of adenosine [2]: potentiates and prolongs the hypotensive effect
3 | CCOC(=O)[C@H](Cc1c[nH]c2ccccc12)NC(=O)[C@@H](NC(=O)[C@@H]1CCC(=O)N1)[C@@H](C)CC [pGLU--ILE--TRP--OEt] ([pGlu]-Ile-Trp-OEt) | 30 | 25 | 
4 | C[C@H](NC(=O)[C@@H]1CCC(=O)N1)C(=O)N[C@@H](Cc1c[nH]c2ccccc12)C(=O)O [pGLU--ALA--TRP, pGLU-ALA-TRP] ([pGlu]-Ala-Trp-OH) | 10 | 20 | 
5 | NCCCC[C@H](NC(=O)[C@@H]1CCC(=O)N1)C(=O)N[C@@H](Cc1c[nH]c2ccccc12)C(=O)O [pGLU--LYS--TRP, pGLU-LYS-TRP] ([pGlu]-Lys-Trp-OH) | 35 | 25 | 
6 | O=C1CC[C@@H](C(=O)N[C@@H](CO)C(=O)N[C@@H](Cc2c[nH]c3ccccc23)C(=O)O)N1 [pGLU--SER--TRP, pGLU-SER-TRP] ([pGlu]-Ser-Trp-OH) | 45 | 35 | 
7 | O=C(CNC(=O)[C@@H]1CCC(=O)N1)N[C@@H](Cc1c[nH]c2ccccc12)C(=O)O [pGLU--GLY--TRP, p-GLU-GLY-TRP] ([pGlu]-Gly-Trp-OH) | 25 | 35 | 
8 | O=C(O)C[C@H](NC(=O)[C@@H]1CCC(=O)N1)C(=O)N[C@@H](Cc1c[nH]c2ccccc12)C(=O)O [pGLU--ASP--TRP, pGLU-ASP-TRP] ([pGlu]-Asp-Trp-OH) | 10 | 10 | 
9 | N=C(N)NCCC[C@H](NC(=O)[C@@H]1CCC(=O)N1)C(=O)N[C@@H](Cc1c[nH]c2ccccc12)C(=O)O [pGLU--ARG--TRP, pGLU-ARG-TRP] ([pGlu]-Arg-Trp-OH) | 25 | 15 | 
10 | CC(C)C[C@H](NC(=O)[C@@H]1CCC(=O)N1)C(=O)N[C@@H](Cc1c[nH]c2ccccc12)C(=O)O [pGLU--LEU--TRP, pGLU-LEU-TRP] ([pGlu]-Leu-Trp-OH) | 30 | 30 | 
11 | CCOC(=O)[C@H](Cc1c[nH]c2ccccc12)NC(=O)[C@H](CC(C)C)NC(=O)[C@@H]1CCC(=O)N1 [pGLU--LEU--TRP--OEt, pGLU-LEU-TRP-OEt] ([pGlu]-Leu-Trp-OEt) | 30 | 20 | 
12 | NC(=O)CC[C@H](NC(=O)[C@@H]1CCC(=O)N1)C(=O)N[C@@H](Cc1c[nH]c2ccccc12)C(=O)O [pGLU--GLN--TRP, pGLU-GLN-TRP] ([pGlu]-Gln-Trp-OH) | 20 | 10 | 
13 | Nc1ncnc2c1ncn2[C@@H]1O[C@H](CO)[C@@H](O)[C@H]1O [adenosine, reference compound] |  |  | Analgesic activity (mean reduction of number of contorsions vs controls) (female Swiss albino mice; adenosine 2 mg/kg intraperitoneally, 10 minutes before acetic acid): 20%; Hemodynamic effect of adenosine alone ([2]; 0.15 mg/kg in the vein): transient hypotensive effect
